From patent publication US20100040552A1, “METHODS TO EVALUATE GLUCOCORTICOID RECEPTOR AGONISTS AND ANTAGONISTS FOR EFFECTS ON NEURON-LIKE CELLS” (ROSETTA INPHARMATICS LLC, priority 2005, published 2010)

Experiments:
CA77 cells = assay: CA77 cell microarray profiling; format: cell-based, rat
Protocol: In order to reduce false positives, progesterone, estradiol, and aldosterone served as out-groups for non-specific effects. Samples were collected at both 6 hours and 24 hours after contacting the CA77 cells with a compound.

Glucocorticoid Receptor [1] = target: T1, Glucocorticoid Receptor (Homo sapiens, UniProt P04150); assay: Transactivation assay, A549 cells; format: cell-based; conditions: A549, read-out: Transactivation, A549 Emax
T1 sequence (P04150 1-777): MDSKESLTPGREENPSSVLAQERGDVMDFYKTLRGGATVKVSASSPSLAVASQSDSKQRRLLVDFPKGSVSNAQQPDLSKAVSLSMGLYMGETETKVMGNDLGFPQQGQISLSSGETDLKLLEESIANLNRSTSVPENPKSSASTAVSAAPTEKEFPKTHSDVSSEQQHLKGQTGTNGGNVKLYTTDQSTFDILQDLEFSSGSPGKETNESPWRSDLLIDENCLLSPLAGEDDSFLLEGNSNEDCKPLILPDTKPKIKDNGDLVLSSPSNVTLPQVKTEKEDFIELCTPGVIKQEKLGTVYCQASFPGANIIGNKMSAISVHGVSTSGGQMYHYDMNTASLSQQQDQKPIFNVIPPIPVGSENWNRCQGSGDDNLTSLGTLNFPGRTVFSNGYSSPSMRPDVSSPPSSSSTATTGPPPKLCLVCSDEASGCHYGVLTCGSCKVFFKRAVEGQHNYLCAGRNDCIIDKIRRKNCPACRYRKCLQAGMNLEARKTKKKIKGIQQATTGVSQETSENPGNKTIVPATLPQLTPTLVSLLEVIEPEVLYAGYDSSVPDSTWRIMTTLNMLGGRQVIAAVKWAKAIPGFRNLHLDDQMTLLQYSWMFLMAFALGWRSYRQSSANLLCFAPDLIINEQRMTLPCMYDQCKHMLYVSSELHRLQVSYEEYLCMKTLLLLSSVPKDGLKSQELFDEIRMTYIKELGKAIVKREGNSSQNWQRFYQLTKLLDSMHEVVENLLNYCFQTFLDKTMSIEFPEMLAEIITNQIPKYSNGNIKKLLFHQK

A549 cells = assay: A549 cell molecular profiling experiment; format: cell-based; conditions: 100 nM
Glucocorticoid Receptor [2] = target: T1, Glucocorticoid Receptor; assay: Transrepression assay, COS cells; format: cell-based; set-up: host or cells: COS cells; conditions: COS
Glucocorticoid Receptor [3] = target: T1, Glucocorticoid Receptor; assay: Transactivation assay, MDA cells; format: cell-based; set-up: host or cells: MDA cells; conditions: read-out: Transactivation, MDA Emax

SMILES: C[C@@H]1C[C@H]2[C@@H]3CCC4=CC(=O)C=C[C@]4(C)[C@@]3(F)[C@@H](O)C[C@]2(C)[C@@]1(O)C(=O)CO [Dexamethasone, dexamethasone]
- Sult1a1 up-regulation as detected by microarray (CA77 cells): 11 fold
- Emax (Glucocorticoid Receptor [1]): 118%
- Up-regulated genes in category DMSO (<0%) (A549 cells; set of 1091 genes): 0
- Up-regulated genes in category Full (≧90%) (A549 cells; set of 1091 genes): 1087
- Up-regulated genes in category High (66.7-90%) (A549 cells; set of 1091 genes): 4
- Up-regulated genes in category Low (0-33.3%) (A549 cells; set of 1091 genes): 0
- Up-regulated genes in category Middle (33.3-66.7%) (A549 cells; set of 1091 genes): 0
- Down-regulated genes in category DMSO (<0%) (A549 cells; set of 1249 genes): 0
- Down-regulated genes in category Full (≧90%) (A549 cells; set of 1249 genes): 1237
- Down-regulated genes in category High (66.7-90%) (A549 cells; set of 1249 genes): 12
- Down-regulated genes in category Low (0-33.3%) (A549 cells; set of 1249 genes): 0
- Down-regulated genes in category Middle (33.3-66.7%) (A549 cells; set of 1249 genes): 0
- Emax at 0.3 µM (Glucocorticoid Receptor [2]; read-out: Transrepression, COS % Emax, 0.3 μM): 100%
- Emax at 1 µM (Glucocorticoid Receptor [2]; read-out: Transrepression, COS % Emax, 1 uM): 100%
- Emax (Glucocorticoid Receptor [3]): 125%
